Measurements taken from US10717749B2, “Macrocyclic sulfondiimine compounds” (BAYER PHARMA AKTIENGESELLSCHAFT, priority 2015, dated 2020).

Assays:
Format in all cases: cell-based
[1] = system: MOLM-13; assay: Proliferation assay, Cell Titer-Glo; conditions: Homo sapiens; MOLM-13, 72-hour exposure; read-out: Inhibition of MOLM-13 cell proliferation IC50
Method: (§1) MOLM-13 human acute myeloid leukemia cells (DSMZ ACC 554) and A2780, human ovarian carcinoma cells (ECACC #93112519) were seeded at a density of 5,000 cells/well (MOLM-13), or 3,000 cells/well (A2780) in a 96-well multititer plate in 150 μL of growth medium supplemented 10% fetal calf serum. After 24 hours, cell viability of one plate (zero-point plate) was determined with the Cell Titer-Glo Luminescent Cell Viability Assay (Promega), whiletest compound was added to the wells of the other plates employing HP Dispenser (final concentrations in the range of 0.0001-10 μM and DMSO controls). Cell viability was assessed after 72-hour exposure with the Cell Titer-Glo Luminescent Cell Viability Assay (Promega). IC50 values (inhibitory concentration at 50% of maximal effect) were determined by means of a 4 parameter fit on measurement data which were normalized to vehicle (DMSO) treated cells (=100%) and measurement readings taken immediately before compound exposure (=0%).

[2] = system: A2780; assay: Proliferation assay, Cell Titer-Glo; conditions: Homo sapiens; A2780, 72-hour exposure; read-out: Inhibition of A2780 cell proliferation IC50
Method: as §1

[3] = system: B16F10; assay: Proliferation assay, crystal violet; conditions: Mus musculus, B16-F10, 96 h; B16F10, 4 days; read-out: Inhibition of B16F10 cell proliferation IC50
Method: (§2) Cultivated tumour cells (HeLa, human cervical tumour cells, ATCC CCL-2; NCI—H460, human non-small cell lung carcinoma cells, ATCC HTB-177; DU 145, hormone-independent human prostate carcinoma cells, ATCC HTB-81; HeLa-MaTu-ADR, multidrug-resistant human cervical carcinoma cells, EPO-GmbH Berlin; Caco-2, human colorectal carcinoma cells, ATCC HTB-37; B16F10, mouse melanoma cells, ATCC CRL-6475) were plated at a density of 3,500 cells/well (DU145), 3,000 cells/well (HeLa-MaTu-ADR), 1,500 cells/well (NCI—H460), 3,000 cells/well (HeLa), 2,000 cells/well (Caco-2), or 1,000 cells/well (B16F10) in a 96-well multititer plate in 150 μL of their respective growth medium supplemented 10% fetal calf serum. After 24 hours, the cells of one plate (zero-point plate) were stained with crystal violet (see below), the test substances were added in various concentrations (0 μM, as well as in the range of 0.0001-10 μM) employing HP Dispenser. The cells were incubated for 4 days in the presence of test substances. Cell proliferation was determined by staining the cells with crystal violet: the cells were fixed by adding 20 μl/measuring point of an 11% glutaric aldehyde solution for 15 minutes at room temperature. After three washing cycles of the fixed cells with water, the plates were dried at room temperature. The cells were stained by adding 100 μl/measuring point of a 0.1% crystal violet solution DU 145, Caco-2, HeLa (pH 4.5) B16F10, NCI—H460, HeLa-MaTu-ADR. After three washing cycles of the stained cells with water, the plates were dried at room temperature. The dye was dissolved by adding 100 μl per measuring point of a 10% acetic acid solution. The extinction was determined by photometry at a wavelength of 595/550/620 nm depending on the intensity of coloration, usually at 595 nm. The change of cell number, in percent, was calculated by normalization of the measured values to the extinction values of the zero-point plate (=0%) and the extinction of the untreated (0 μM) cells (=100%). The IC50 values (inhibitory concentration at 50% of maximal effect) were determined by means of a 4 parameter fit.

[4] = system: NCI-H460; assay: Proliferation assay, crystal violet; conditions: Homo sapiens, 96 h; NCI-H460, 4 days; read-out: Inhibition of NCI-H460 cell proliferation IC50
Method: as §2

[5] = system: HeLa; assay: Proliferation assay, crystal violet; conditions: Homo sapiens, 96 h, 4 days, read-out: Inhibition of HeLa cell proliferation IC50
Method: as §2

[6] = system: Caco-2; assay: Proliferation assay, crystal violet; conditions: Homo sapiens, 96 h; Caco-2, 4 days; read-out: Inhibition of Caco-2 cell proliferation IC50
Method: as §2

[7] = system: DU145; assay: Proliferation assay, crystal violet; conditions: Homo sapiens, DU-145, 96 h; DU145, 4 days; read-out: Inhibition of DU145 cell proliferation IC50
Method: as §2

SMILES	IC50 [1] [nM]	IC50 [2] [nM]	IC50 [3] [nM]	IC50 [4] [nM]	IC50 [5] [nM]	IC50 [6] [nM]	IC50 [7] [nM]
CS(=N)(Cc1cc2cc(c1)OCCCCOc1cc(F)ccc1-c1nc(ncc1F)N2)=NC1CC1 (racemic) [Example 9, (rac)-9-[(N-cyclopropyl-S-methylsulfonodiimidoyl)methyl]-16,20-difluoro-2,3,4,5-tetrahydro-12H-13,17-(azeno)-11,7-(metheno)-1,6,12,14-benzodioxadiazacyclononadecine]	22.2	31.3	92.2	56	31.6	47.8	118
CN=S(C)(=N)Cc1cc2cc(c1)OCCCCOc1cc(F)ccc1-c1nc(ncc1F)N2 (racemic) [Example 10, (rac)-9-[(N,S-dimethylsulfonodiimidoyl)methyl]-16,20-difluoro-2,3,4,5-tetrahydro-12H-13,17-(azeno)-11,7-(metheno)-1,6,12,14-benzodioxadiazacyclononadecine]		29					
CS(=N)(=N)Cc1cc2cc(c1)OCCCCOc1cc(F)ccc1-c1nc(ncc1F)N2 [Example 5, 16,20-difluoro-9-[(S-methylsulfonodiimidoyl)methyl]-2,3,4,5-tetrahydro-12H-13,17-(azeno)-11,7-(metheno)-1,6,12,14-benzodioxadiazacyclononadecine]	8.2	11.7	50.6	38.3	25.8	35.2	36.2
CS(=N)(=N)Cc1cc2cc(c1)OCCCCOc1c(ccc(F)c1F)-c1nc(ncc1F)N2 [Example 6, 16,20,21-trifluoro-9-[(S-methylsulfonodiimidoyl)methyl]-2,3,4,5-tetrahydro-12H-13,17-(azeno)-11,7-(metheno)-1,6,12,14-benzodioxadiazacyclononadecine]	113	123	683	369	313	325	360
CS(=N)(=N)Cc1cc2cc(c1)OCCCCOc1c(F)cccc1-c1nc(ncc1F)N2 [Example 7, 16,21-difluoro-9-[(S-methylsulfonodiimidoyl)methyl]-2,3,4,5-tetrahydro-12H-13,17-(azeno)-11,7-(metheno)-1,6,12,14-benzodioxadiazacyclononadecine]	126	125	784	448	332	396	396
CS(=N)(=N)Cc1cc2nc(c1C#N)OCCCOc1cc(F)ccc1-c1cc(ncc1F)N2 [Example 8, 15,19-difluoro-8-[(S-methylsulfonodiimidoyl)methyl]-3,4-dihydro-2H,11H-10,6-(azeno)-12,16-(metheno)-1,5,11,13-benzodioxadiazacyclooctadecine-7-carbonitrile]	4.2	18.1	50.7		5.5	43.1	11.2

Further compounds by falling IC50 [2], results first:

IC50 [1] [nM]	IC50 [2] [nM]	IC50 [3] [nM]	IC50 [4] [nM]	IC50 [5] [nM]	IC50 [6] [nM]	IC50 [7] [nM]	SMILES
4.7	11.7						CN=S(C)(=N)Cc1cc2nc(c1)OCCCOc1cc(F)ccc1-c1cc(ncc1F)N2 (racemic) [Example 4, (rac)-8-[(N,S-dimethylsulfonodiimidoyl)methyl]-15,19-difluoro-3,4-dihydro-2H,11H-10,6-(azeno)-12,16-(metheno)-1,5,11,13-benzodioxadiazacyclooctadecine]
5.3	5.4	37.4	89.8	10.2	28.7	29.5	CS(=N)(Cc1cc2nc(c1)OCCCOc1cc(F)ccc1-c1cc(ncc1F)N2)=NCCCO (racemic) [Example 2, (rac)-3-(2-{[15,19-difluoro-3,4-dihydro-2H,11H-10,6-(azeno)-12,16-(metheno)-1,5,11,13-benzodioxadiazacyclooctadecin-8-yl]methyl}-2-methyl-2λ^6-diazathia-1,2-dien-1-yl)propan-1-ol]
2.8	4	14.3	10.4	2.8	16.4	9.1	CS(=N)(=N)Cc1cc2nc(c1)OCCCOc1cc(F)ccc1-c1cc(ncc1F)N2 [Example 1, 15,19-difluoro-8-[(S-methylsulfonodiimidoyl)methyl]-3,4-dihydro-2H,11H-10,6-(azeno)-12,16-(metheno)-1,5,11,13-benzodioxadiazacyclooctadecine]
2	2.6						CS(=N)(Cc1cc2nc(c1)OCCCOc1cc(F)ccc1-c1cc(ncc1F)N2)=NC#N (racemic) [Example 3, (rac)-[{[15,19-difluoro-3,4-dihydro-2H,11H-10,6-(azeno)-12,16-(metheno)-1,5,11,13-benzodioxadiazacyclooctadecin-8-yl]methyl}(imino)methyl-λ^6-sulfanylidene]cyanamide]
